In patent US20120329813A1 (Cardoz AB, priority 2009, published 2012):

Tests used:
[1] = tested on: CRP; details: subjects with prediabetes and elevated serum TNF-alpha; cited from earlier work
[2] = apparently healthy subjects with normal or low LDL cholesterol and elevated CRP; 1.9 years; cited from earlier work
[3] = tested on: hsCRP; details: patients with chronic obstructive pulmonary disease; cited from earlier work
[4] = tested on: plasma CRP; test: Plasma CRP (high sensitivity CRP assay) in healthy volunteers treated perorally with pemirolast potassium for five days; type: in vivo, human
Experimental: (§1) Plasma CRP was determined with a high sensitivity CRP assay (based on Near Infrared Particle Immunoassay rate methodology) on a UniCel DxC 800 instrument from Beckman Coulter (analysis performed at the Department of Clinical Chemistry, Karolinska University Laboratory, Stockholm, Sweden). The degree of mast cell activity was determined by measuring plasma tryptase with the ImmunoCAP Tryptase Fluoro-Immuno-Enzymatic Assay on a ImmunoCAP 250 instrument from Phadia (analysis performed at Clinical Immunology and Transfusion Medicine, Karolinska University Laboratory, Stockholm, Sweden).

[5] = tested on: plasma tryptase; test: Plasma tryptase (ImmunoCAP Tryptase Fluoro-Immuno-Enzymatic Assay) in healthy volunteers before and after pemirolast treatment; type: in vivo, human
Experimental: as §1

[6] = tested on: plasma C-reactive protein (CRP); test: Plasma CRP (hsCRP assay) in a patient with coronary artery disease treated with pemirolast potassium for two weeks; type: in vivo, human; details: CAD patient, 30 mg b.i.d., 6.4 mg/L on Day 1 before the first dose
Experimental: The study was approved by the Swedish Medical Products Agency, and performed by Berzelius Clinical Research Centre AB in Linköping, Sweden (the clinic).
Plasma CRP was determined with the high sensitivity CRP (hsCRP) assay described in Example 1 above.
(§2) The first dose (3×10 mg) was administered in the morning of Day 1 at the clinic, the second dose in the evening of Day 1 at home, and then 3×10 mg b.i.d. at home during Days 2 to 14. The last dose was administered in the evening of Day 14 at home.
(§3) The CAD patient was a person with a body height of 188 cm and a body weight of 103 kg. They were on treatment with enalapril 20 mg QD (once daily) for hypertension since 2006. After a myocardial infarction in 2009, they were started on treatment with simvastatin 40 mg QD, acetylsalicylic acid 75 mg QD, and metoprolol 100 mg QD (all three drugs started in June 2009). Since January 2010, the patient was also treated with felodipin 5 mg QD. During the two week treatment with pemirolast, the patient continued to take these medications.

[7] = Safety in the CAD patient during the two week pemirolast treatment; type: in vivo, human; details: 30 mg b.i.d. for two weeks
Experimental: as §2, §3

[8] = human, in vivo, po
Experimental: During days 2-4, each subject received one dose in the morning and one dose in the evening with a time interval of 12 hours between the daily doses. […] Other than the occasional use of nasal decongestants or paracetamol, the subjects were instructed not to use other drugs, alcohol or nicotine during the study.

In the case of `CN1CCC(=C2c3ccccc3CC(=O)c3sccc32)CC1` [ketotifen], the “effect on CRP” value [1] is given as “not to reduce CRP”.
For `CC(C)c1nc(N(C)S(C)(=O)=O)nc(-c2ccc(F)cc2)c1/C=C/[C@@H](O)C[C@@H](O)CC(=O)O` [rosuvastatin], the “effect on cardiovascular morbidity/mortality” value [2] is given as “significantly reduces”.
In the case of `Cn1c(=O)c2[nH]cnc2n(C)c1=O` [theophylline], the “effect on hsCRP” value [3] is listed as “not to reduce hsCRP”.
In the case of `Cc1cccn2c(=O)c(-c3nnn[nH]3)cnc12` [pemirolast], the “effect on CRP levels (FIG. 1)” value ([4]; four subjects with baseline CRP >0.9 mg/L, 10, 30 or 50 mg day 1-5) was “markedly reduced”, the “mean CRP level at the end of the pemirolast treatment” value ([4]; four subjects with baseline plasma CRP >0.9 mg/L, 10, 30 or 50 mg per os b.i.d. day 1-5, 1.8 mg/L before treatment, p<0.05) was 1.1 mg/L and the “mean CRP level at the end of the pemirolast treatment” value ([4]; remaining subjects with baseline CRP below 0.9 mg/L (n=13), 0.32 mg/L before treatment) was 0.38 mg/L. The “effect on tryptase levels” value ([5]; four subjects with SLGI, plasma CRP >0.9 mg/L) was “did not reduce”, the “mean plasma tryptase level” value ([5]; four subjects with plasma CRP >0.9 mg/L, both before and after pemirolast treatment) was 4.8 µg/L and the CRP level ([6]; Day 8) was 4.0 mg/L. For the same compound, the CRP level ([6]; morning of Day 15) was 1.8 mg/L, the adverse events [7] was “did not report any adverse events” and the “AUC and Cmax versus dose” value [8] was “increased in a dose-proportional manner”.
